Key:
p62 protein = biological target: T1, p62 protein (Homo sapiens, UniProt Q13501); test: Oligomerization activity of p62 protein by immunoblotting (Experimental Example 1); type: cell-based; details: HEK293 cell lysate treated with test compounds at room temperature for 2 hours; immunoblot, FIG. 2
T1 construct: endogenous in cells; host or cells: HEK293 (lysate treated with compounds)
Excerpt: In order to evaluate the p62 protein oligomerization activity efficacy by the compounds (Examples 1-25), HEK293 cell line, which is human embryonic kidney-derived cell, was collected. As the representative compounds among the present compounds, the compounds of Examples 1, 2, 3, 5, 6, 7, 8, 9, 12, and 13 (Example 10 (YT-5-1), Example 11 (YT-5-2), Example 12 (YT 5-7), Example 13 (YT 5-8), Example 15 (YT-8-7), Example 16 (YT-8-8), Example 17 (YTK-107), Example 18 ([…]), Example 20 (ATB10041), Example 21 (ATB10042), Example 22 (ATB10043), Example 23 (ATB10044), Example 24 (ATB10045) and Example 25 (ATB10046)) were selected. In order to measure intracellular p62 protein activation and oligomerization according to the treatment with these selected representative compounds, the respective cells were dispensed into a 100 pi dish. The cells were collected after further culturing for 24 hours so that the cells were completely attached to the surface of the plate. 100 ul of lysis buffer (20 mM Tris, pH 7.4), 150 mM NaCl, 1% Triton X-100, 2 mM NaF, 2 mM EDTA, 2 mM beta-glycerophosphate, 5 mM sodium orthovanadate, 1 mM PMSF, leupeptin, aprotinin) were injected into each sample and the cells were lysed. Based on the measured total protein concentration, each sample was treated with test compounds at room temperature for 2 hours, and then a sample buffer was added and allowed to react at 95° C. for 10 minutes. 25 ul was taken from the samples after the reaction, and dispensed into each well of acrylamide gel, and then immunoblotting was performed.

LC3 [1] = test: Autophagy activity in cultured cells by immunoblotting, concentration series (Experimental Example 2); type: cell-based, human; details: HeLa cells; 1, 2, 5, 10 and 20 μM, 24 hours; immunoblot, FIG. 3
Experimental: In order to evaluate the autophagy activity efficacy by the compounds (Examples 1-25), HeLa cell line, which is a cell line derived from a cervical cancer patient, was cultured using a DMEM medium containing 10% FBS and 1% streptomycin/penicillin in an incubator with 5% carbon dioxide. As the representative compounds among the present compounds, the compounds of Examples 1, 2, 3, 5, 6, 7, 8, 9, 12 and 13 (Example 5 (YTK-1005), Example 1 (YTK-1105), Example 6 (YTK-1205), Example 7 (YTK-1305), Example 2 (YTK-2205), Example 3 (YTK-3305), Example 8 (YTK-105), Example 9 (YTK-205), Example 14 (YTK-1108), Example 12 (YT 5-7), Example 13 (YT 5-8)), Example 20 (ATB10041), Example 21 (ATB10042), Example 22 (ATB10043), Example 23 (ATB10044), Example 24 (ATB10045), and Example 25 (ATB10046)) were selected. In order to measure autophagy activity according to the treatment with these selected representative compounds, the respective cells were dispensed into 6 well plates. Additional cultures were performed for 24 hours so that the cells were completely attached to the surface of the plate. To find the concentration at which the respective compounds could increase the phenomenon of autophagy, the test compounds were diluted at 1, 2, 5, 10 and 20 μM and treated. After treatment with the respective compounds, the cells were cultured again in a cell incubator for 24 hours, and then the cells were collected. To extract proteins from the collected cells, 100 ul of lysis buffer (20 mM Tris (pH 7.4), 150 mM NaCl, 1% Triton X-100, 2 mM NaF, 2 mM EDTA, 2 mM beta-glycerophosphate, 5 mM sodium orthovanadate, 1 mM PMSF, leupeptin, aprotinin) was injected into each sample, and cells were lysed. Based on the measured total protein concentration, a sample buffer was added to each sample and allowed to react at 100° C. for 5 minutes. 5 ul was taken from the samples after the reaction, and dispensed into each well of acrylamide gel, and then immunoblotting was performed.

p62 and LC3 = test: Autophagy activity by immunofluorescence staining and confocal microscopy (Experimental Example 5); type: cell-based, human; details: HeLa cells, 5 uM, 24 hours, FIG. 6
Experimental: In order to confirm the p62 protein activity and the activity level of autophagy phenomenon by the compounds (Examples 1-25), immunofluorescence staining was performed using p62 and LC3 as markers. In order to confirm the p62 activity and the activity level of autophagy phenomenon by new p62 ligands and isomers thereof in cultured cells, HeLa cell line, which is a cell line derived from cervical cancer patient, was treated with the novel p62 ligand compounds (YTK-1205, YTK-1305, YTK-2205, YTK-3305, YTK-105, YTK-205, YT 5-1, YT 9-1, YT 5-2, YT 9-2, YT 8-2, YT 8-1, YTK-107, YTK-207) and cultured. Thereafter, as markers of the autophagy phenomenon, the expression level and location of LC3 puncta and the local co-existence with p62 puncta were observed.
For immunofluorescence staining, a cover glass was placed on a 24-well plate, cells were dispensed, cultured for 24 hours, and then treated with 5 uM of the novel p62 ligands according to the present invention. For the action of the compounds, additional cultures were performed for 24 hours, and then the medium was removed. Cells were fixed using formaldehyde at room temperature. In order to prevent non-specific staining, the cells were allowed to react with a blocking solution at room temperature for 1 hour, and then treated with LC3 antibody diluted at a certain ratio using the blocking solution, and allowed to reacted at room temperature for 1 hour. The antibody-treated cells were washed three times with PBS, and goat-derived secondary antibody was diluted at a certain ratio using the blocking solution, and then allowed to react at room temperature for 30 minutes. The cells were washed again with PBS three times, and for intracellular nuclear staining, the expression level, intracellular puncta formation and intracellular coexistence level of p62 and LC3 were observed through a confocal microscopy after DAPI staining.

LC3 [2] = test: Autophagy activity in cultured cells by immunoblotting, treatment time (Experimental Example 3); type: cell-based, human; details: HeLa cells; 5 μM for 1, 3, 6, 12, 24, 48 hours or 10 μM for 24 hours; immunoblot, FIG. 4
Experimental: In order to investigate the autophagy activity efficacy by the compounds (Examples 1-25), immunoblotting was performed in the same manner as in Experimental Example 2 using LC3 as a marker. As for the difference, in order to evaluate the treatment time required for activation and the activity retention time, 5 μM of the representative compounds selected among the present compounds (Example 5 (YTK-1005), Example 6 (YTK-1205), Example 7 (YTK-1305), Example 2 (YTK-2205), Example 3 (YTK-3305), Example 14 (YTK-1108), Example 8 (YTK-105), Example 9 (YTK-205)) were treated for 1, 3, 6, 12, 24, 48 hours. On the other hand, 10 μM of the representative compounds selected among the present compounds (Example 10 (YT 5-1), Example 11 (YT 5-2), Example 16 (YT 8-8), Example 15 (YT 8-7), Example 17 (YTK-107), Example 18 (YTK-207), Example 20 (ATB10041), Example 21 (ATB10042), Example 22 (ATB10043), Example 23 (ATB10044), Example 24 (ATB10045), Example 25 (ATB10046)) were treated for 24 hours.

T1 sequence (Q13501 whole entry): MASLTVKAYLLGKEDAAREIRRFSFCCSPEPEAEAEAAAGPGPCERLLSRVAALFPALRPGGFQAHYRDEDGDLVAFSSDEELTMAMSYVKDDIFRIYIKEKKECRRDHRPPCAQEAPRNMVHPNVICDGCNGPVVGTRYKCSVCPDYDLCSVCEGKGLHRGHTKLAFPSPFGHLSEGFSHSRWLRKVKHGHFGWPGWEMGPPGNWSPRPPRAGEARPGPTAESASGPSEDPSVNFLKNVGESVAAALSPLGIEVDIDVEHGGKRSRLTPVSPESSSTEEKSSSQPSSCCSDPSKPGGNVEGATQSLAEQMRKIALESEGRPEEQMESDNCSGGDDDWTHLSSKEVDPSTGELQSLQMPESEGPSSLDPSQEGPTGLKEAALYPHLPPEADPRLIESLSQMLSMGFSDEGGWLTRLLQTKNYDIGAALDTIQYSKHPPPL

Compound	p62 protein oligomerization activity (monomer, oligomers and high-molecular aggregates) (p62 protein)	autophagy activity (level of LC3) (LC3 [1])	p62 activation and oligomerization, delivery to autophagosome, autophagy activity (p62 and LC3 puncta, local coexistence) (p62 and LC3)	autophagy activity (level of LC3) (LC3 [2])
OCCNCc1cccc(OCc2ccc(Cl)cc2)c1 [YT 5-7, 2-((3-((4-chlorobenzyl)oxy)benzyl)amino)ethan-1-ol]	increasing the p62 protein oligomerization activity	increasing the autophagy activity		
OCCNCc1cccc(OCc2ccc(F)cc2)c1 [YT 5-8, 2-((3-((4-fluorobenzyl)oxy)benzyl)amino)ethan-1-ol]	increasing the p62 protein oligomerization activity	increasing the autophagy activity		
OCCNCc1ccc(OCc2ccc(Cl)cc2)c(OCc2ccc(Cl)cc2)c1 [YT-5-1, 2-((3,4-bis((4-chlorobenzyl)oxy)benzyl)amino)ethan-1-ol]	increasing the p62 protein oligomerization activity		allow the activation and oligomerization of p62 proteins, and then show the efficacy of delivering them to autophagosome and simultaneously increasing autophagy activity	increasing the autophagy activity
OCCNCc1ccc(OCc2ccc(F)cc2)c(OCc2ccc(F)cc2)c1 [YT-5-2, 2-((3,4-bis((4-fluorobenzyl)oxy)benzyl)amino)ethan-1-ol]	increasing the p62 protein oligomerization activity		allow the activation and oligomerization of p62 proteins, and then show the efficacy of delivering them to autophagosome and simultaneously increasing autophagy activity	increasing the autophagy activity
OCCNCc1cccc(OCc2ccccc2)c1 [YTK-105, 2-((3-(benzyloxy)benzyl)amino)ethan-1-ol]		increasing the autophagy activity	allow the activation and oligomerization of p62 proteins, and then show the efficacy of delivering them to autophagosome and simultaneously increasing autophagy activity	increasing the autophagy activity
N=C(N)NCCNCc1cccc(OCc2ccccc2)c1 [YTK-107, 1-(2-((3-(benzyloxy)benzyl)amino)ethyl)guanidine]	increasing the p62 protein oligomerization activity		allow the activation and oligomerization of p62 proteins, and then show the efficacy of delivering them to autophagosome and simultaneously increasing autophagy activity	increasing the autophagy activity
N=C(N)NCCNCc1cccc(OCCc2ccccc2)c1 [YTK-207]	increasing the p62 protein oligomerization activity		allow the activation and oligomerization of p62 proteins, and then show the efficacy of delivering them to autophagosome and simultaneously increasing autophagy activity	increasing the autophagy activity
OCCNCCNCc1ccc(OCc2ccccc2)c(OCc2ccccc2)c1 [YTK-1108, 2-((2-((3,4-bis(benzyloxy)benzyl)amino)ethyl)amino)ethan-1-ol]		increasing the autophagy activity		
OCCNCc1ccc(OCc2ccccc2)c(OCCc2ccccc2)c1 [YTK-1205, 2-((4-(benzyloxy)-3-phenethoxybenzyl)amino)ethan-1-ol]		increasing the autophagy activity	allow the activation and oligomerization of p62 proteins, and then show the efficacy of delivering them to autophagosome and simultaneously increasing autophagy activity	
OCCNCc1ccc(OCc2ccccc2)c(OCCCc2ccccc2)c1 [YTK-1305, 2-((4-(benzyloxy)-3-(3-phenylpropoxy)benzyl)amino)ethan-1-ol]		increasing the autophagy activity	allow the activation and oligomerization of p62 proteins, and then show the efficacy of delivering them to autophagosome and simultaneously increasing autophagy activity	
OCCNCc1ccc(OCCc2ccccc2)c(OCCc2ccccc2)c1 [YTK-2205, 2-((3,4-diphenethoxybenzyl)amino)ethan-1-ol]		increasing the autophagy activity	allow the activation and oligomerization of p62 proteins, and then show the efficacy of delivering them to autophagosome and simultaneously increasing autophagy activity	
OCCNCc1ccc(OCCCc2ccccc2)c(OCCCc2ccccc2)c1 [YTK-3305, 2-((3,4-bis(3-phenylpropoxy)benzyl)amino)ethan-1-ol]		increasing the autophagy activity	allow the activation and oligomerization of p62 proteins, and then show the efficacy of delivering them to autophagosome and simultaneously increasing autophagy activity	

From patent publication US12427346B2, “P62 ligand compound, and composition for preventing, ameliorating or treating proteinopathies comprising the same” (AUTOTAC INC., priority 2018, dated 2025)
